Laboratory results reported in paper PMC5438364, “A broad-spectrum bactericidal lipopeptide with anti-biofilm properties” (Scientific Reports, 2017).
Like-named read-outs stand apart in the source and are kept apart here. Where a SMILES comes first, the peptide text is derived from it. [ ]: non-standard residue; d: D form. The star is where a group is joined. Palmitoyl = CCCCCCCCCCCCCCCC(=O)*; Lauroyl = CCCCCCCCCCCC(=O)*; 12Ado = NCCCCCCCCCCCC(=O)O; Decanoyl = CCCCCCCCCC(=O)*; Octanoyl = CCCCCCCC(=O)*

How the values were obtained:
S. mutans = test: microbe, parasite or virus in culture; format: cell-based, Streptococcus mutans
Method: Staphylococci, Bacilli, Escherichia, Pseudomonas, Acinetobacter, Salmonella and Klebsiella species were grown in Luria Bertani broth (LB; 5 gr/l NaCl, 5 gr/l yeast extract, 10 gr/l tryptone). Enterococci and E. coli ML-35p were grown in Tryptic Soy Broth (TSB). Listeria and Streptococci were grown in Brain Heart Infusion (BHI). All bacteria were grown over-night at 37 °C with shaking. S. mutans 35668 plated on BHI agar for enumeration was grown for 48 hr. S. mutans UA159 was grown in 5% CO2 enriched atmosphere. Fusobacterium and Porphyromonas were grown in Wilkins-Chalgren growth medium and an anaerobic atmosphere.
Minimal inhibitory concentration (MIC) was determined using the microdilution assay. Mid-log-phase bacteria at 5 × 10^5 CFU/ml were incubated in a 96-well plate with serial two-fold dilutions of the tested compound for 18–24 hr at 37 °C (final volume of 200 µl). O.D. at 620 nm was measured (Synergy HT, BioTek Instruments, Winooski, VT, USA), and the MIC was determined as the lowest concentration for which no increase in O.D. was detected.

S. mutans ATCC 35668 = test: Bactericidal kinetics (time-kill); format: cell-based, Streptococcus mutans; conditions: time-kill kinetics in BHI
Method: Bactericidal kinetics was assessed by incubating 5 × 10^5 CFU/ml of mid-log-phase bacteria with the OAK for 3 hr at 37 °C with shaking. Aliquots were taken at t = 0, 0.5, 1, 2 and 3 hr, subjected to serial 10-fold dilutions in saline (NaCl = 0.85%) and plated for enumeration after 24–48 hr incubation at 37 °C.

[1] = tested on: S. mutans ATCC 35668 biofilm; test: Anti-biofilm activity on pre-formed biofilm; format: cell-based, Streptococcus mutans; conditions: ≥0.5 mM, within one hour of exposure, inoculum 10^9 CFU/ml
Method: Anti-biofilm activity was evaluated against established biofilms in 96-well plates as follows. 200 µl of mid-log-phase S. mutans 35668 at 5 × 10^5 CFU/ml in BHI containing 2% sucrose were placed in each well, and plates were incubated for 24 hr at 37 °C without shaking. Unattached cells were removed by decanting the plates and biofilms were washed three times with milliQ water. Solutions of the tested compounds were placed on the biofilms for up to 3 hr at 37 °C without shaking. Plates were decanted in 0.5 hr intervals and biofilms were washed three times with milliQ water to remove any compound residues. Biofilms were scraped from the bottom of the wells, suspended in BHI and sonicated for 5 min in a sonication bath, subjected to serial 10-fold dilutions in saline and plated on BHI agar for enumeration.

[2] = Hydrophobicity by C18 RP-HPLC elution; format: physicochemical; conditions: chromatographic, RP-HPLC C18 (Vydac), flow 2 ml/min, linear acetonitrile gradient 1%/min
Method: OAKs were synthesized in-house (433 A Peptide Synthesizer; Applied Biosystems, Foster City, CA, USA) by the solid-phase method using 9-fluorenylmethyloxycarbonyl (Fmoc) active-ester chemistry on 4-methylbenzhydrylamine (MBHA) resin. OAKs were then deprotected and cleaved from the resin using trifluoroacetic acid:H2O (95:5) and purified to >95% chromatographic homogeneity by reverse phase high performance liquid chromatography (RP-HPLC) using C18 column (Vydac), a flow rate of 2 ml/min and a linear acetonitrile gradient of 1%/min (Alliance; Waters, Milford, MA, USA). Peaks identity was verified by mass-spectrometry (Xevo G2 Tof; Waters, Milford, MA, USA). Purified OAKs were then lyophilized and kept as dry powder at −20 °C.

GPB and GNB = test: Effect observed at low concentrations, analog series; format: cell-based; conditions: summary of this and previous studies
Method: Table 2 Modulating biophysical properties of a core sequence by conjugating an N-terminal acyl. | column: Effect observed at low concentrations (<3 µM)

E. coli = conditions: microdilution; cited from earlier work
From the text: Table 2 Modulating biophysical properties of a core sequence by conjugating an N-terminal acyl. | column: MIC^c (µM) / E.c.

[3] = under similar conditions; increased with increasing hydrophobicity; cited from earlier work
bacteria = conditions: cited from earlier work
From the text: A variety of strategies were proposed to generate chemical mimics of AMPs to alleviate complications associated with peptide drugs, [31]. AMP-mimics may also be beneficial in helping to improve understanding the complex molecular basis for AMPs function(s) owing to their relative molecular/structural simplicity. Namely, while charge and hydrophobicity represent most critical factors influencing AMP properties, it is often challenging to identify the respective optimal proportions for controlling potency or selectivity. For instance, excess hydrophobicity might promote self-assembly in aque ...

Row | SMILES | higher potency (MIC) than C14KKc12K (S. mutans; MIC of CHX versus C14KKc12K on S. mutans) | MIC (S. mutans; Streptococcus mutans, microdilution, BHI, 18–24 hr, 37 °C) | multiples of MIC at which bactericidal (S. mutans ATCC 35668) | killing of the initial inoculum in preformed biofilm [1] | MIC (S. mutans) | H, hydrophobicity, defined as % acetonitrile eluent in C18 HPLC column [2] | Effect observed at low concentrations (<3 µM) (GPB and GNB) | MIC E.c. (E. coli) | binding affinity to LPS [3] | antibacterial activity (bacteria)
1 | [H]/N=C(\N/C(=N/[H])NCCCCCCNC(=N)NC(=N)Nc1ccc(Cl)cc1)Nc1ccc(Cl)cc1 [CHX, chlorhexidine, reference compound] | ~3 fold | 0.3 µM | 40 multiples of its MIC | > 99% | – | – | – | – | – | –
2 | CCCCCCCC(=O)N[C@@H](CCCCN)C(=O)N[C@@H](CCCCN)C(=O)NCCCCCCCCCCCC(=O)N[C@@H](CCCCN)C(N)=O [C8KKc12K] (Octanoyl-KK[12Ado]K-NH2) | – | – | – | – | 50 µM | 41% | Weak perturbations of GNB outer membrane (normal growth) | >50[40] µM | lower than that of C14KKc12K | essentially inactive
3 | CCCCCCCCCCCC(=O)N[C@@H](CCCCN)C(=O)N[C@@H](CCCCN)C(=O)NCCCCCCCCCCCC(=O)N[C@@H](CCCCN)C(N)=O [C12KKc12K] (Lauroyl-KK[12Ado]K-NH2) | – | – | – | – | 1.56 µM | 51% | Impairing membrane damages leading to a bacteriostatic mode of action in GPB; OM permeabilization & delayed growth in GNB | 16[40] µM | lower than that of C14KKc12K | –
4 | NCCCC[C@H](NC(=O)CCCCCCCCCCCNC(=O)[C@H](CCCCN)NC(=O)[C@@H](N)CCCCN)C(N)=O [H-KKc12K-NH2] (H-KK[12Ado]K-NH2) | – | – | – | – | >50 µM | 27% | Not observed (normal growth) | >50[40] µM | – | inactive
5 | CCCCCCCCCCCCCCCC(=O)N[C@@H](CCCCN)C(=O)N[C@@H](CCCCN)C(=O)NCCCCCCCCCCCC(=O)N[C@@H](CCCCN)C(N)=O [C16KKc12K] (Palmitoyl-KK[12Ado]K-NH2) | – | – | – | – | 1.56 µM | 62% | Trend reversal (reduced potency) due to excess hydrophobicity as self-assembly approaches the critical aggregation concentration | 25[24] µM | – | –
6 | CCCCCCCCCC(=O)N[C@@H](CCCCN)C(=O)N[C@@H](CCCCN)C(=O)NCCCCCCCCCCCC(=O)N[C@@H](CCCCN)C(N)=O [C10KKc12K] (Decanoyl-KK[12Ado]K-NH2) | – | – | – | – | 6.25 µM | 46% | Weak growth inhibition of some GPB and transient membrane damages including partial depolarization of CM (slight delay in GNB growth) | >50[40] µM | lower than that of C14KKc12K | essentially inactive
